Each block holds one molecule with its values, some of them ahead of it. The source made the active and inactive calls. The calls are words filed in the database; no cut-off is given here.
Legend:
[1] = target: T1, Nuclear factor erythroid 2-related factor 2 (Homo sapiens) (UniProt Q16236); assay: Activation of Nrf2 in human BEAS2B cells assessed as increase in HO1 gene expression at 5 uM incubated for 6 hrs by qPCR method; type: cell-based
T1 sequence (whole entry): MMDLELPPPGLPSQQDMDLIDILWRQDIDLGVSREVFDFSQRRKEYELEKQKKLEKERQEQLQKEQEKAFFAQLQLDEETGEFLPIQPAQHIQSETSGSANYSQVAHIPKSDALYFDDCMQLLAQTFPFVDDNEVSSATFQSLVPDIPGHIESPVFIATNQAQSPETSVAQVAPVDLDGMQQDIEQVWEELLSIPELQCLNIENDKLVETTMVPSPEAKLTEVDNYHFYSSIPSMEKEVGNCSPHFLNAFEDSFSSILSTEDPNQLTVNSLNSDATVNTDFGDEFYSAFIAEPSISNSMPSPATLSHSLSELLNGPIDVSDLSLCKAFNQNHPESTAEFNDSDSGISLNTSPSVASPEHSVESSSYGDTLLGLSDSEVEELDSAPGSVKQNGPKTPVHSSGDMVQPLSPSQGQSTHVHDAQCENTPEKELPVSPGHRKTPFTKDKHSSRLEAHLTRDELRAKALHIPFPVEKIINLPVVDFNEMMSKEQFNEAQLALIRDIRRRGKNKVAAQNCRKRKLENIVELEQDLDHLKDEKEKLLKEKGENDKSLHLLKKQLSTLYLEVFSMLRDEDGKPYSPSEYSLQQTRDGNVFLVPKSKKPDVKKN

Mus musculus [2] = assay: Increase in HO-1 protein expression in mouse lung at 400 mg/kg, po measured 6 hrs post dose by ELISA method; type: functional, organism-based
Mus musculus [3] = assay: Increase in HO-1 gene expression in mouse lung at 400 mg/kg, po measured 6 hrs post dose by qPCR method; type: functional, organism-based
Mus musculus [4] = assay: Increase in HO-1 gene expression in mouse lung at 200 mg/kg, po measured 6 hrs post dose by qPCR method; type: functional, organism-based
Mus musculus [5] = assay: Increase in HO-1 protein expression in mouse lung at 200 mg/kg, po measured 6 hrs post dose by ELISA method; type: functional, organism-based
[6] = target: T1, Nuclear factor erythroid 2-related factor 2 (Homo sapiens); assay: Activation of Nrf2 in human BEAS2B cells assessed as increase in HO1 gene expression at 10 uM incubated for 6 hrs by qPCR method; type: cell-based

Compound: COc1ccncc1C(=O)/C=C/c1ccccc1C(F)(F)F
Activity [1]: Active

Compound: COc1ccccc1C(=O)/C=C/c1ncccc1C(F)(F)F
Activity (Mus musculus [2]): Active | Activity [1]: Active | Activity (Mus musculus [3]): Active | Activity (Mus musculus [4]): Active

Compound: COC(=O)[C@]12CCC(C)(C)C[C@H]1[C@H]1C(=O)C=C3[C@@]4(C)C=C(C#N)C(=O)C(C)(C)[C@@H]4CC[C@@]3(C)[C@]1(C)CC2
Activity [6]: Active

Continued, in another order:

Activity [1]: Active
Compound: COc1ccccc1C(=O)/C=C/c1cnccc1C(F)(F)F

Activity [1]: Active
Compound: COc1ccccc1C(=O)/C=C/c1ccncc1C(F)(F)F

Activity [1]: Active
Compound: COc1ccccc1C(=O)/C=C/c1ccccc1C(F)(F)F
Activity (Mus musculus [2]): Active | Activity (Mus musculus [5]): Active | Activity (Mus musculus [3]): Active | Activity (Mus musculus [4]): Active

Activity [1]: Active
Compound: COc1cnccc1C(=O)/C=C/c1ccccc1C(F)(F)F
